Source: ChEMBL document CHEMBL5705899 (Biochem J, 2014)
Active and inactive are the calls of the source. The calls are words filed in the database; no cut-off is given here.

Experiments:
[1] = target: Protein kinase C iota type (Homo sapiens) (UniProt P41743); assay: Inhibition of human PKCiota at 1 uM using 3xChocktide-PKC as substrate in presence of 33P-ATP by ProQinase assay
[2] = target: MAP kinase-activated protein kinase 2 (Homo sapiens) (UniProt P49137); assay: Inhibition of recombinant human N-terminal GST/C-terminal Myc-tagged MAPKAPK2 (46 to 400 residues) expressed in Escherichia coli assessed as remaining activity at 1 uM using KKLNRTLSVA as substrate incubated for 30 mins in presence of [gamma-33P]ATP by filter binding method relative to control
[3] = target: Interferon-induced, double-stranded RNA-activated protein kinase (Homo sapiens) (UniProt P19525); assay: Inhibition of human EIF2AK2 at 1 uM using RB-CTF as substrate in presence of 33P-ATP by ProQinase assay
Sequence of Interferon-induced, double-stranded RNA-activated protein kinase (Homo sapiens) (P19525 whole entry): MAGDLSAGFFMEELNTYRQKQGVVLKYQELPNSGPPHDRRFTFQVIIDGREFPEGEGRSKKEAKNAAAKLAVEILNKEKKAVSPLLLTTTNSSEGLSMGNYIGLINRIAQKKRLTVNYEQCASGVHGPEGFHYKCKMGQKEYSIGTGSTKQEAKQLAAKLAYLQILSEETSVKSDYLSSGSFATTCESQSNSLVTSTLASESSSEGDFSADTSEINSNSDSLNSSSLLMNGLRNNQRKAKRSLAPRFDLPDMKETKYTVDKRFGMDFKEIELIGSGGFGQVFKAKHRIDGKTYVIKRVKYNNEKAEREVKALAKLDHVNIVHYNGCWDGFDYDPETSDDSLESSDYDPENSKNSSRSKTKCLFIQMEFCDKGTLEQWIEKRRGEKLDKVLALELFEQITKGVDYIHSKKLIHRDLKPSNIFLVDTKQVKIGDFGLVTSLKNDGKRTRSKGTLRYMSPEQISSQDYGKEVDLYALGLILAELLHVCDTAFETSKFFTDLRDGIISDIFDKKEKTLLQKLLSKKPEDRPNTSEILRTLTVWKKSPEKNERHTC

[4] = target: Tyrosine-protein kinase JAK1 (Homo sapiens) (UniProt P23458); assay: Inhibition of human JAK1 at 1 uM using RBER-IRStide as substrate in presence of 33P-ATP by ProQinase assay
Sequence of Tyrosine-protein kinase JAK1 (Homo sapiens) (P23458 whole entry): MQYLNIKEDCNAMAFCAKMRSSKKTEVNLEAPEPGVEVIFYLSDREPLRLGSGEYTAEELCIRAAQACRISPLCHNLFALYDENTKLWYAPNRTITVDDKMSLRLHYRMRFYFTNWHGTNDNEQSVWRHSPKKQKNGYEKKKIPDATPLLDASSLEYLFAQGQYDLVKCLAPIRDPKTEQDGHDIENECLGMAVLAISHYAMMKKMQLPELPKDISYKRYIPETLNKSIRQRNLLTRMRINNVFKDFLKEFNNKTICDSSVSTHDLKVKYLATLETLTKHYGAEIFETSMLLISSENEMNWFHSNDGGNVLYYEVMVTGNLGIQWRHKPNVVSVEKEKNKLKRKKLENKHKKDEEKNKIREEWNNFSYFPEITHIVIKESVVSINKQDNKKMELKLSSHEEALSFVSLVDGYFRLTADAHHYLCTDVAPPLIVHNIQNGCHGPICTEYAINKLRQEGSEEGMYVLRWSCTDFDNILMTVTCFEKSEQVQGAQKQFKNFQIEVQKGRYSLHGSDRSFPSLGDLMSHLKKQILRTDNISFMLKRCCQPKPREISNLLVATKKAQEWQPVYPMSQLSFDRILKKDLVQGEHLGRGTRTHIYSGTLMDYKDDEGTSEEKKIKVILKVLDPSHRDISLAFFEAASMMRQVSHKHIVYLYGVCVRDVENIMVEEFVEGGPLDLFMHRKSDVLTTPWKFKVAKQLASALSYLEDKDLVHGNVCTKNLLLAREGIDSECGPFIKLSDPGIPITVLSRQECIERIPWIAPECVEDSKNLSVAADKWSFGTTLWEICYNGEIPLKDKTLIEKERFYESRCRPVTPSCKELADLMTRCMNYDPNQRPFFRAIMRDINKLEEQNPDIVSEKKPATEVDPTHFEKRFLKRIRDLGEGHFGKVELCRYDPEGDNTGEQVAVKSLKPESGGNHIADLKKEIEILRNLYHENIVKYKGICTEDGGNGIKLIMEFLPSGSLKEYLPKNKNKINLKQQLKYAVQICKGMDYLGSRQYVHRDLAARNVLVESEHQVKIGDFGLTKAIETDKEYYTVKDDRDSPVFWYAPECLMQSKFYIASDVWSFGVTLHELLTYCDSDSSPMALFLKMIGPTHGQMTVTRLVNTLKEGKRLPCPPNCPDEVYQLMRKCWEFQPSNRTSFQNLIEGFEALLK

[5] = target: Serine/threonine-protein kinase PAK 3 (Homo sapiens) (UniProt O75914); assay: Inhibition of human PAK3 at 1 uM using bio-4xCHKT as substrate in presence of 33P-ATP by ProQinase assay
[6] = target: Leucine-rich repeat serine/threonine-protein kinase 2 (Homo sapiens) (UniProt Q5S007); assay: Inhibition of human LRRK2 at 1 uM using RBER-GSK3 as substrate in presence of 33P-ATP by ProQinase assay
[7] = target: Mitogen-activated protein kinase kinase kinase 5 (Homo sapiens) (UniProt Q99683); assay: Inhibition of recombinant human N-terminal GST-tagged ASK1 (670 to 950 residues) expressed in Escherichia coli assessed as remaining activity at 1 uM using MBP as substrate incubated for 30 mins in presence of [gamma-33P]ATP by filter binding method relative to control
[8] = target: Casein kinase I isoform epsilon (Homo sapiens) (UniProt P49674); assay: Inhibition of human CK1epsilon at 1 uM using casein as substrate in presence of 33P-ATP by ProQinase assay
Sequence of Casein kinase I isoform epsilon (Homo sapiens) (P49674 whole entry, looked up, canonical isoform): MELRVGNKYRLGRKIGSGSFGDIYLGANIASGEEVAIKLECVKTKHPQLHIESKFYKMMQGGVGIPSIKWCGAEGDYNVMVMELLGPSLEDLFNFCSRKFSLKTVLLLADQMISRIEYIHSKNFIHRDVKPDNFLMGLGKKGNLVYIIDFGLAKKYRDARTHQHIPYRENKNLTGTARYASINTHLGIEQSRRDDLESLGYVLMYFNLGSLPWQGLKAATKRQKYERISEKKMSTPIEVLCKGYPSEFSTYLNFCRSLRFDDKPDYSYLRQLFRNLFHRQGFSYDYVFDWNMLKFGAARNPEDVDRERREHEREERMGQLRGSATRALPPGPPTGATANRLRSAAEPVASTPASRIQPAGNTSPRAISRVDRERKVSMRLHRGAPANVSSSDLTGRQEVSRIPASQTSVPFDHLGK

[9] = target: Serine/threonine-protein kinase BRSK1 (Homo sapiens) (UniProt Q8TDC3); assay: Inhibition of human BRSK1 at 1 uM using RBER-CHKtide as substrate in presence of 33P-ATP by ProQinase assay
Sequence of Serine/threonine-protein kinase BRSK1 (Homo sapiens) (Q8TDC3 whole entry, the tested form may be a part): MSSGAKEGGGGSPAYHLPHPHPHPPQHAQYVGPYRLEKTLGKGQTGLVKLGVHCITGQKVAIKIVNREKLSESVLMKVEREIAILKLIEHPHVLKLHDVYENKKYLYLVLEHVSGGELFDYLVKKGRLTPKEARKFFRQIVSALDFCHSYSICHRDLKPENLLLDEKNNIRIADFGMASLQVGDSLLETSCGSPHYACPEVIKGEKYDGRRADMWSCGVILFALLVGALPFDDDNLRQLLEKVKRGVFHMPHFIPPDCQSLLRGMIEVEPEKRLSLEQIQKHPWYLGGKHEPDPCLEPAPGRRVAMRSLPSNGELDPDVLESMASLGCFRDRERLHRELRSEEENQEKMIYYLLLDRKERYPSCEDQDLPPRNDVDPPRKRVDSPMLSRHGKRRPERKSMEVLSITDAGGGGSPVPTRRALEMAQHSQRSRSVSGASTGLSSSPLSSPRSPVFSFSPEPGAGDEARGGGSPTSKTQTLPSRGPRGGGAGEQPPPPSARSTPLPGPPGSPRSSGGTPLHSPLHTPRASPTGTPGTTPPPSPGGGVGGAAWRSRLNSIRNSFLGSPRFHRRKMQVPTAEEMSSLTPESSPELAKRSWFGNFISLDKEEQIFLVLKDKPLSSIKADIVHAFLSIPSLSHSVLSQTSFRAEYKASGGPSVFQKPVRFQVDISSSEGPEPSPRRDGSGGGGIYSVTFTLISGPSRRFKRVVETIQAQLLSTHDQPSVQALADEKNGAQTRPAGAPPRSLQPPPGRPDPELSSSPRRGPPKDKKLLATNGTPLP

[10] = target: Protein kinase C alpha type (Homo sapiens) (UniProt P17252); assay: Inhibition of recombinant human N-terminal His6-tagged PKCalpha (1 to 672 residues) expressed in baculovirus infected Sf21 cells assessed as remaining activity at 1 uM using Histone H1 as substrate incubated for 30 mins in presence of [gamma-33P]ATP by filter binding method relative to control
[11] = target: Protein kinase C zeta type (Homo sapiens) (UniProt Q05513); assay: Inhibition of recombinant human N-terminal His6-tagged PKCzeta (2 to 592 residues) expressed in baculovirus infected Sf21 cells assessed as remaining activity at 1 uM using ERMRPRKRQGSVRRV as substrate incubated for 30 mins in presence of [gamma-33P]ATP by filter binding method relative to control
Sequence of Protein kinase C zeta type (Homo sapiens) (Q05513 whole entry, the tested form may be a part): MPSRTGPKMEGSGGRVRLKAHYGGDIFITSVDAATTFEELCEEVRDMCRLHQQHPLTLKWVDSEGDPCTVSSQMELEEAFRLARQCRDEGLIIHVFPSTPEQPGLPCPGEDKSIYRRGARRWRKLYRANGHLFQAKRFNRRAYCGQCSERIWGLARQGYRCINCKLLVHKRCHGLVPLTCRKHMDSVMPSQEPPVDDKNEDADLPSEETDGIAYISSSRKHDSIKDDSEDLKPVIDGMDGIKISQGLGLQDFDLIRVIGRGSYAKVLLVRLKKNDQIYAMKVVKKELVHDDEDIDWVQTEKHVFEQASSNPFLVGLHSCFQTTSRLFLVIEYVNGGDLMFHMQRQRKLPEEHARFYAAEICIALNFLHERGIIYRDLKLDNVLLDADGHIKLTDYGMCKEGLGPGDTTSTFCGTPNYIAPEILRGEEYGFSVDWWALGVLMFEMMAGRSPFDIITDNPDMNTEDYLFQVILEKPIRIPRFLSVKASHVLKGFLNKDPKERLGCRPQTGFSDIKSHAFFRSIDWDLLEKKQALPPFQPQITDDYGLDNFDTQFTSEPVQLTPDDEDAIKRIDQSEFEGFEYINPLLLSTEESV

[12] = target: Dual specificity tyrosine-phosphorylation-regulated kinase 3 (Homo sapiens) (UniProt O43781); assay: Inhibition of recombinant human N-terminal GST-tagged DYRK3 (1 to 588 residues) expressed in Escherichia coli assessed as remaining activity at 1 uM using KKISGRLSPIMTEQ as substrate incubated for 30 mins in presence of [gamma-33P]ATP by filter binding method relative to control
[13] = target: T1, Cyclin-dependent kinase 5/CDK5 activator 1 (Homo sapiens) (UniProt Q00535+Q15078); assay: Inhibition of human CDK5/p35NCK at 1 uM using RBER-CHKtide as substrate in presence of 33P-ATP by ProQinase assay; assay type: protein-complex assay
T1 sequence (Q00535 whole entry): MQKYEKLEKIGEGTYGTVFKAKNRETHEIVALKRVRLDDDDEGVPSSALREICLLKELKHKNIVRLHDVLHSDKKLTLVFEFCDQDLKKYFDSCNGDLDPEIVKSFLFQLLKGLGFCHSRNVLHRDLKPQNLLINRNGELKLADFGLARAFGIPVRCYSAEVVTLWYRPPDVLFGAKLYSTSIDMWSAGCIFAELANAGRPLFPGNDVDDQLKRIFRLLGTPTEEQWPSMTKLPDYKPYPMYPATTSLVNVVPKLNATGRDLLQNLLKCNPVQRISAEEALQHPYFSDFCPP
T1 sequence (Q15078 99-307 partner limits assumed): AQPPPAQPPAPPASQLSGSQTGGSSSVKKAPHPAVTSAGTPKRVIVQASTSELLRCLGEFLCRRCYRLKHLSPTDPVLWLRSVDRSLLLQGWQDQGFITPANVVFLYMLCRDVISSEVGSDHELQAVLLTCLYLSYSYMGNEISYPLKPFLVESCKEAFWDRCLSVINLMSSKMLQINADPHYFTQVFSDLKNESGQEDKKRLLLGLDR

[14] = target: Serine/threonine-protein kinase 3 (Homo sapiens) (UniProt Q13188); assay: Inhibition of human MST2 at 1 uM using RB-CTF as substrate in presence of 33P-ATP by ProQinase assay
[15] = target: T1, Cyclin-dependent kinase 5/CDK5 activator 1 (Homo sapiens); assay: Inhibition of human CDK5/p25NCK at 1 uM using RBER-CHKtide as substrate in presence of 33P-ATP by ProQinase assay; assay type: protein-complex assay
[16] = target: Serine/threonine-protein kinase ULK2 (Homo sapiens) (UniProt Q8IYT8); assay: Inhibition of recombinant human ULK2 (1 to 1036 residues) expressed in baculovirus infected Sf21 cells assessed as remaining activity at 1 uM using MBP as substrate incubated for 30 mins in presence of [gamma-33P]ATP by filter binding method relative to control
Sequence of Serine/threonine-protein kinase ULK2 (Homo sapiens) (Q8IYT8 whole entry, the tested form may be a part): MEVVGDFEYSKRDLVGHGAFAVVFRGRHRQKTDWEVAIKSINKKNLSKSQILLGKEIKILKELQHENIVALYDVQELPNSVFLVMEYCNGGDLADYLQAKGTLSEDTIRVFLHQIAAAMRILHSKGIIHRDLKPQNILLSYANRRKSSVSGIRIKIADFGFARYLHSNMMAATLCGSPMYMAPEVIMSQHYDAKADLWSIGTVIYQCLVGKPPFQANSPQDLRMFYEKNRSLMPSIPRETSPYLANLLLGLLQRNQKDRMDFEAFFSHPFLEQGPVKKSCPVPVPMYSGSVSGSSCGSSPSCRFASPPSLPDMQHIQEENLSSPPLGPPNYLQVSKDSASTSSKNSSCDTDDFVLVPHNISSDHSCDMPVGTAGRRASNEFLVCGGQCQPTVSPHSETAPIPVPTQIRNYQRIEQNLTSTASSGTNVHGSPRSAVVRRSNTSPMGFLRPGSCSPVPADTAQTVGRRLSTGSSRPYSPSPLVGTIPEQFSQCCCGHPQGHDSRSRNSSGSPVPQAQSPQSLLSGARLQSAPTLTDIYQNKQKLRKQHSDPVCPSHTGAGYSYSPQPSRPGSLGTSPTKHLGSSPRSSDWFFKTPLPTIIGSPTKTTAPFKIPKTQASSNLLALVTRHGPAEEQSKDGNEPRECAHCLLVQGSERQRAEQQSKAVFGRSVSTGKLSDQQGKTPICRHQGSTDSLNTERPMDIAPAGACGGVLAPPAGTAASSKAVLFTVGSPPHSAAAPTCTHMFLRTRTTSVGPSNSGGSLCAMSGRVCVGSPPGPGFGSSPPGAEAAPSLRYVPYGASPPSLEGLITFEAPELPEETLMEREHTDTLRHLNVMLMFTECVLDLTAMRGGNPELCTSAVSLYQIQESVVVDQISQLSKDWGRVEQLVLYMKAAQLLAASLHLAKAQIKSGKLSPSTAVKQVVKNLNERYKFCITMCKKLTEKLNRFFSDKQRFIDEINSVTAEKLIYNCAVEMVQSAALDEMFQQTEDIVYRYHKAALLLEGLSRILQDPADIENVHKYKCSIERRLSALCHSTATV

[17] = target: Serine/threonine-protein kinase WNK1 (Homo sapiens) (UniProt Q9H4A3); assay: Inhibition of recombinant human WNK1 (1 to 661 residues) expressed in baculovirus infected Sf21 cells assessed as remaining activity at 1 uM using YLRRRLSDSNF as substrate incubated for 30 mins in presence of [gamma-33P]ATP by filter binding method relative to control
[18] = target: CDK8/Cyclin C (Homo sapiens) (UniProt P49336+P24863); assay: Inhibition of human CDK8/CyclinC at 1 uM using RBER-CHKtide as substrate in presence of 33P-ATP by ProQinase assay; assay type: protein-complex assay
[19] = target: Phosphatidylinositol 4-phosphate 5-kinase type-1 alpha (Homo sapiens, UniProt Q99755); assay: Inhibition of PIP5K1A (unknown origin) using D-myo-PIP as substrate incubated for 45 mins by ADP-Glo assay
[20] = target: Inhibitor of nuclear factor kappa-B kinase subunit alpha (Homo sapiens) (UniProt O15111); assay: Inhibition of human IKKalpha at 1 uM using RBER-CHKtide as substrate in presence of 33P-ATP by ProQinase assay
[21] = target: STE20/SPS1-related proline-alanine-rich protein kinase (Homo sapiens) (UniProt Q9UEW8); assay: Inhibition of human STK39 at 1 uM using RBER-CDC25tide as substrate in presence of 33P-ATP by ProQinase assay
[22] = target: Diacylglycerol kinase kappa (Homo sapiens) (UniProt Q5KSL6); assay: Inhibition of DGKkappa (unknown origin) at 1 uM
[23] = target: Ribosomal protein S6 kinase alpha-3 (Homo sapiens) (UniProt P51812); assay: Inhibition of recombinant human N-terminal His6-tagged RSK2 (2 to 740 residues) expressed in baculovirus infected Sf21 cells assessed as remaining activity at 1 uM using KKLNRTLSVA as substrate incubated for 30 mins in presence of [gamma-33P]ATP by filter binding method relative to control
[24] = target: Serine/threonine-protein kinase MRCK beta (Homo sapiens) (UniProt Q9Y5S2); assay: Inhibition of human CDC42BPB at 1 uM using RB-S6P as substrate in presence of 33P-ATP by ProQinase assay
[25] = target: Vascular endothelial growth factor receptor 1 (Homo sapiens) (UniProt P17948); assay: Inhibition of human VEGFR1 at 1 uM using polyEY as substrate in presence of 33P-ATP by ProQinase assay

CC(C)(O)CNc1ncc(-c2ccnc(Nc3ccnc(Cl)c3)n2)c(CC2CC2)n1
inhibition [1]: inactive
Activity [2]: 110%
inhibition [3]: inactive
inhibition [4]: inactive
inhibition [5]: inactive
inhibition [6]: inactive
Activity [7]: 124%
inhibition [8]: inactive
inhibition [9]: inactive
Activity [10]: 119%
Activity [11]: 103%
Activity [12]: 112%
inhibition [13]: inactive
inhibition [14]: inactive
inhibition [15]: inactive
Activity [16]: 118%
Activity [17]: 116%
inhibition [18]: inactive
IC50 [19]: 11.3 µM
inhibition [20]: inactive
inhibition [21]: inactive
inhibition [22]: inactive
Activity [23]: 103%
inhibition [24]: inactive
inhibition [25]: inactive
